The target in one assay is Bcl-xL (Homo sapiens (Human), UniProt Q07817). The assay can be described thus: Bcl-xL/Bim Fluorescence Resonance Energy Transfer Assay (FRET). Type of assay: binding. As for the experimental part:
Bcl-xL/Bim Fluorescence Resonance Energy Transfer Assay (FRET) The assays were performed in black flat-bottom 384-well plates. The final assay volume was 55 μl prepared from additions of Biotin-Bcl-xL (Bcl-xL: GENBANK® Accession No. […] The reaction was incubated at room temperature for 60 minutes. After 60 minutes, 5 μL of Streptavidin-Terbium FRET detection reagent (Perkin Elmer) was added to the reaction mixture and incubated at room temperature in the dark for 30 mins. […] Compounds were dissolved at 10 mM in dimethylsulfoxide (DMSO) and evaluated at eleven concentrations. IC50 values were derived by non-linear regression analysis.

For the next assay, the target named is Bcl-2 (Homo sapiens (Human), UniProt P10415). Briefly: Bcl-2/Bim Fluorescence Polarization Assay (FPA). Type of assay: binding. As for the experimental part: Bcl-2/Bim Fluorescence Polarization Assay (FPA)
The assays were performed in black flat-bottom 384-well plates. […] The reaction was incubated at room temperature for 60 minutes and fluorescence polarization of the reaction was detected on the LJL Plate Reader. Inhibition data were calculated from mP values generated by the no protein control reactions for 100% inhibition and vehicle-only reactions for 0% inhibition. The final concentrations of reagents in the assay were 4.9 nM BCL-2, 5 nM fluoresceinated 18-mer BIM peptide and 1% DMSO. […] Compounds were dissolved at 10 mM in dimethylsulfoxide (DMSO) and evaluated at eleven concentrations. IC50 values were derived by non-linear regression analysis.

These results are taken from patent US9346795B2, “Substituted sulfonamides useful as antiapoptotic Bcl inhibitors” (Bristol-Myers Squibb Company, priority 2011, dated 2016).

Bcl-xL, sequence (Q07817 whole entry): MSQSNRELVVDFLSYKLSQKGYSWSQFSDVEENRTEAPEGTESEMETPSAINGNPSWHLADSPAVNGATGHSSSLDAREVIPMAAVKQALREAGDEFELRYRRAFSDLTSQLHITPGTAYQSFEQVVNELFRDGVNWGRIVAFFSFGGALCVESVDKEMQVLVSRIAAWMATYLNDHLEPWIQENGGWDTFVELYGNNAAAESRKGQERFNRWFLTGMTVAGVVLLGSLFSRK
Bcl-2, sequence (P10415 whole entry): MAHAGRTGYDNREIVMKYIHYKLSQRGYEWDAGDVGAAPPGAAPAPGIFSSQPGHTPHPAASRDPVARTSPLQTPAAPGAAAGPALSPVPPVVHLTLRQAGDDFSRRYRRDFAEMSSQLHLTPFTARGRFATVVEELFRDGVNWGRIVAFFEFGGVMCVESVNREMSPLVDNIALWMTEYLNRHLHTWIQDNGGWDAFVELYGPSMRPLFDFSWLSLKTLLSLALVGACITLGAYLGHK

Regarding `CCCCN(CCCC)C(=O)c1nn(-c2ccc(C(=O)NS(=O)(=O)c3cc(Br)c4c(c3)CCN4CC)cc2C(=O)N2Cc3ccccc3C[C@H]2CO)c(C)c1Cl` [Example 205, 1-(4-(7-bromo-1-ethylindolin-5-ylsulfonylcarbamoyl)-2-((S)-3-(hydroxymethyl)-1,2,3,4-tetrahydroisoquinoline-2-carbonyl)phenyl)-N,N-dibutyl-4-chloro-5-methyl-1H-pyrazole-3-carboxamide], the IC50 against Bcl-xL amounted to 8.85 nM; at Bcl-2 it was 9.15 nM.

Take `CCCN(CCC)c1ncc(Cl)c(-c2ccc(C(=O)NS(=O)(=O)c3ccc4cccc(Cl)c4c3)cc2C(=O)N2Cc3ccccc3C[C@H]2CO)n1` [Example 328, 4-(5-Chloro-2-(dipropylamino)pyrimidin-4-yl)-N-(8-chloronaphthalen-2-ylsulfonyl)-3-((S)-3-(hydroxymethyl)-1,2,3,4-tetrahydroisoquinoline-2-carbonyl)benzamide]: the IC50 stood at 10 nM on Bcl-xL and 8.78 nM on Bcl-2.

In the case of `CCCCN(CCCC)C(=O)c1nn(-c2ccc(C(=O)NS(=O)(=O)c3ccc4c(c3)c(I)cn4CC)cc2C(=O)N2CCc3ccccc3C2)c(C)c1Cl` [Example 84, N,N-dibutyl-4-chloro-1-(4-(1-ethyl-3-iodo-1H-indol-5-ylsulfonylcarbamoyl)-2-(1,2,3,4-tetrahydroisoquinoline-2-carbonyl)phenyl)-5-methyl-1H-pyrazole-3-carboxamide], the IC50 against Bcl-xL came to 80 nM; against Bcl-2, 7.69 nM.

As to `CCCCN(CCCC)C(=O)c1nn(-c2ccc(C(=O)NS(=O)(=O)c3ccc4ccc(C(=O)N5CCN(C)CC5)cc4c3)cc2C(=O)N2CCc3ccccc3C2)c(C)c1Cl` [Example 46, N,N-Dibutyl-4-chloro-5-methyl-1-(4-(7-(4-methylpiperazine-1-carbonyl)naphthalen-2-ylsulfonylcarbamoyl)-2-(1,2,3,4-tetrahydroisoquinoline-2-carbonyl)phenyl)-1H-pyrazole-3-carboxamide], the IC50 on Bcl-xL turned out to be 40 nM; against Bcl-2, 90 nM.

On to `CCCCc1c(-c2ccc(C(=O)NS(=O)(=O)c3ccc4ccccc4c3)cc2C(=O)N2CCc3ccccc3C2)c(C(=O)OCC)nn1-c1ccc(Oc2ccccc2)cc1` [Example 228, Ethyl 5-butyl-4-(4-(naphthalen-2-ylsulfonylcarbamoyl)-2-(1,2,3,4-tetrahydroisoquinoline-2-carbonyl)phenyl)-1-(4-phenoxyphenyl)-1H-pyrazole-3-carboxylate], for which the results for the IC50 at Bcl-xL and at Bcl-2 were 60 nM and 100 nM, respectively.

In the case of `CCCCN(CCCC)C(=O)c1nn(-c2ccc(C(=O)NS(=O)(=O)c3ccc4c(N(C)C)ccc(Br)c4c3)cc2C(=O)N2CCc3ccccc3C2)c(C)c1Cl` [Example 31, 1-(4-(8-bromo-5-(dimethylamino)naphthalen-2-ylsulfonylcarbamoyl)-2-(1,2,3,4-tetrahydroisoquinoline-2-carbonyl)phenyl)-N,N-dibutyl-4-chloro-5-methyl-1H-pyrazole-3-carboxamide], the values for the IC50 on Bcl-xL and on Bcl-2 were 70 nM and 30 nM, respectively.

For `CCCCN(CCCC)C(=O)c1nn(-c2ccc(C(=O)NS(=O)(=O)c3ccc4ccccc4c3)cc2C(=O)N2Cc3ccccc3C[C@H]2CN2CCN(CCO)CC2)c(C)c1Cl` [Example 115, N,N-dibutyl-4-chloro-1-(2-((S)-3-((4-(2-hydroxyethyl)piperazin-1-yl)methyl)-1,2,3,4-tetrahydroisoquinoline-2-carbonyl)-4-(naphthalen-2-ylsulfonylcarbamoyl)phenyl)-5-methyl-1H-pyrazole-3-carboxamide], the half-maximal inhibitory concentration (IC50) against Bcl-xL was 20 nM; against Bcl-2, 90 nM.

`CCCCN(CCC(=O)NCCN1CCN(C)CC1)C(=O)c1nn(-c2ccc(C(=O)NS(=O)(=O)c3ccc4c(c3)CCN4Cc3ccc(Cl)c(Cl)c3)cc2C(=O)N2CCc3ccccc3C2)c(C)c1Cl` [Example 200, N-butyl-4-chloro-1-(4-(1-(3,4-dichlorobenzyl)indolin-5-ylsulfonylcarbamoyl)-2-(1,2,3,4-tetrahydroisoquinoline-2-carbonyl)phenyl)-5-methyl-N-(3-(2-(4-methylpiperazin-1-yl)ethylamino)-3-oxopropyl)-1H-pyrazole-3-carboxamide]: the half-inhibitory concentration (IC50) against Bcl-xL worked out at 130 nM; against Bcl-2, 1010 nM.

With `CCCCN(CCCC)C(=O)c1nn(-c2ccc(C(=O)NS(=O)(=O)c3cc(Br)c4c(c3)c(Br)cn4CC)cc2C(=O)N2CCc3ccccc3C2)c(C)c1Cl` [Example 85, N,N-dibutyl-4-chloro-1-(4-(3,7-dibromo-1-ethyl-1H-indol-5-ylsulfonylcarbamoyl)-2-(1,2,3,4-tetrahydroisoquinoline-2-carbonyl)phenyl)-5-methyl-1H-pyrazole-3-carboxamide], the IC50 against Bcl-xL came out at 20 nM; against Bcl-2, 4.19 nM.

In the case of `CCCCc1c(-c2ccc(C(=O)NS(=O)(=O)CC[Si](C)(C)C)cc2C(=O)N2CCc3ccccc3C2)c(C(=O)OCC)nn1-c1ccccc1` [Example 239, Ethyl 5-butyl-1-phenyl-4-(2-(1,2,3,4-tetrahydroisoquinoline-2-carbonyl)-4-(2-(trimethylsilyl)ethylsulfonylcarbamoyl)phenyl)-1H-pyrazole-3-carboxylate], the IC50 against Bcl-xL was determined as 30 nM; at Bcl-2, 580 nM.

Turning to `CCCCN(CCCC)C(=O)c1nn(-c2ccc(C(=O)NS(=O)(=O)c3ccc4c(c3)CCN4Cc3ccc(Cl)c(Cl)c3)cc2C(=O)N2CCc3ccccc3C2)c(C)c1Cl` [Example 59, N,N-dibutyl-4-chloro-1-(4-(1-(3,4-dichlorobenzyl)indolin-5-ylsulfonylcarbamoyl)-2-(1,2,3,4-tetrahydroisoquinoline-2-carbonyl)phenyl)-5-methyl-1H-pyrazole-3-carboxamide], the IC50 at Bcl-xL was determined as 40 nM; against Bcl-2, 20 nM.

For the compound `CCCCN(CCCC)C(=O)c1nn(-c2ccc(C(=O)NS(=O)(=O)c3ccc4c(Cl)ccc(Cl)c4c3)cc2C(=O)N2CCc3ccccc3C2)c(C)c1Cl` [Example 44, N,N-dibutyl-4-chloro-1-(4-(5,8-dichloronaphthalen-2-ylsulfonylcarbamoyl)-2-(1,2,3,4-tetrahydroisoquinoline-2-carbonyl)phenyl)-5-methyl-1H-pyrazole-3-carboxamide], the values for the IC50 at Bcl-xL and at Bcl-2 were 30 nM and 7.25 nM, respectively.

Turning to `CCCCN(CCCC)C(=O)c1nn(-c2ccc(C(=O)NS(=O)(=O)c3ccc4c(Cl)cccc4c3)cc2C(=O)N2CCc3ccccc3C2)c(C)c1Cl` [Example 2, N,N-dibutyl-4-chloro-1-(4-(5-chloronaphthalen-2-ylsulfonylcarbamoyl)-2-(1,2,3,4-tetrahydroisoquinoline-2-carbonyl)phenyl)-5-methyl-1H-pyrazole-3-carboxamide], the IC50 was 30 nM against Bcl-xL and 200 nM against Bcl-2.

`CCCCc1c(-c2ccc(C(=O)NS(=O)(=O)c3ccc4ccccc4c3)cc2C(=O)N2CCc3ccccc3C2)c(CO)nn1-c1ccc(CCO)cc1` [Example 245, 4-(5-butyl-1-(4-(2-hydroxyethyl)phenyl)-3-(hydroxymethyl)-1H-pyrazol-4-yl)-N-(naphthalen-2-ylsulfonyl)-3-(1,2,3,4-tetrahydroisoquinoline-2-carbonyl)benzamide]: the IC50 came to 6.14 nM against Bcl-xL and 20 nM at Bcl-2.

On to `CCCCN(CCCC)C(=O)c1nn(-c2ccc(C(=O)NS(=O)(=O)c3ccc4cccc(OCCN5CCOCC5)c4c3)cc2C(=O)N2CCc3ccccc3C2)c(C)c1Cl` [Example 27, N,N-dibutyl-4-chloro-5-methyl-1-(4-(8-(2-morpholinoethoxy)naphthalen-2-ylsulfonylcarbamoyl)-2-(1,2,3,4-tetrahydroisoquinoline-2-carbonyl)phenyl)-1H-pyrazole-3-carboxamide], for which the IC50 on Bcl-xL stood at 40 nM; on Bcl-2, 110 nM.

Regarding `CCCCN(C(=O)c1nn(-c2ccc(C(=O)NS(=O)(=O)c3ccc4ccccc4c3)cc2C(=O)N2CCc3ccccc3C2)c(C)c1Cl)c1ccc(C(=O)OC)cc1` [Example 154, methyl 4-(N-butyl-4-chloro-5-methyl-1-(4-(naphthalen-2-ylsulfonylcarbamoyl)-2-(1,2,3,4-tetrahydroisoquinoline-2-carbonyl)phenyl)-1H-pyrazole-3-carboxamido)benzoate], the 50% inhibitory concentration (IC50) was 80 nM against Bcl-xL and 90 nM against Bcl-2.

Turning to `CCCCc1c(-c2ccc(C(=O)NS(=O)(=O)c3ccc4ccccc4c3)cc2C(=O)N2CCc3ccccc3C2)c(C(=O)OCC)nn1-c1ccc(Oc2cccc(Cl)c2)cc1` [Example 230, Ethyl 5-butyl-1-(4-(3-chlorophenoxy)phenyl)-4-(4-(naphthalen-2-ylsulfonylcarbamoyl)-2(1,2,3,4-tetrahydroisoquinoline-2-carbonyl)phenyl)-1H-pyrazole-3-carboxylate], the IC50 at Bcl-xL stood at 60 nM; against Bcl-2, 20 nM.

For the compound `CCCCc1c(-c2ccc(C(=O)NS(=O)(=O)c3ccc4ccccc4c3)cc2C(=O)N2Cc3ccccc3C[C@H]2CO)c(CO)nn1-c1ccccc1` [Example 260, 4-(5-Butyl-3-(hydroxymethyl)-1-phenyl-1H-pyrazol-4-yl)-3-((S)-3-(hydroxymethyl)-1,2,3,4-tetrahydroisoquinoline-2-carbonyl)-N-(naphthalen-2-ylsulfonyl)benzamide], the IC50 stood at 8.01 nM at Bcl-xL and 10 nM against Bcl-2.
